# Source: article PMC6544242, “Development and validation of a multiplex UHPLC-MS/MS method for the determination of the investigational antibiotic against multi-resistant tuberculosis macozinone (PBTZ169) and five active metabolites in human plasma” (PLoS ONE, 2019)
# Like-named read-outs stand apart in the source and are kept apart here.
# Legend:
# [1] = system: Mycobacterium tuberculosis; details: cited from earlier work; for anti-TB activity in vitro (active / inactive): not measured in this paper
# [2] = type: physicochemical; details: DMSO:MeOH (1:1 v/v), -20°C
# Procedure: Each compound was independently weighed and the corresponding powder dissolved in the required volume of DMSO to give a 1 mg/mL stock solution of the compound that was sonicated for 5 minutes. The stock solution used for PBTZ169 was corrected for salt form of the analyte by applying the weighing factor (0.926). Due to the high purity of the PBTZ169 and the five metabolites, no additional correcting factors were applied for preparing compounds stock solutions. Stock solutions were prepared in 5 mL PP tubes and stored at -20°C. The stability of these solutions was verified over a period of 6 months (mean bias < 8%) and of 9 months (mean bias < 9%)
# PBTZ169 and metabolites mixture solutions. Two distinct working solutions (WS) including PBTZ169 together with its five active metabolites were prepared: one for calibration standards and one for validation standards/quality control (QC) samples. Working solutions including all the analytes at 100 μg/mL were obtained by adding the required volumes of compounds stock solutions (50 μL) to 200 μL of a DMSO/MeOH (1:1 v/v) mixture in safe-lock 1.5 mL PP tubes. Spiking solutions for calibration, validation standards and QCs at the appropriate concentrations were prepared by applying sequential dilutions in DMSO/MeOH (1:1 v/v) mixture starting from the dedicated WS in safe-lock 1.5 mL PP tubes and thoroughly mixed. […]
# [3] = Long-term stability in plasma; type: in vitro ADME, human; details: -20°C and -80°C
# Procedure: Long-term stability in plasma. Stability in citrated plasma stored at -20°C and -80°C in suitable tubes for long-term storage (1, 3, 6 and 12 months) was evaluated at 1, 10, 100 and 1000 ng/mL. Deviations of the mean concentrations (n = 3) of samples measured at each time points from the nominal concentrations were calculated.
# [4] = human, 6 h
# [5] = human
# [6] = for % from t0: processed extract sample, 24h
# [7] = Phase Ia clinical pharmacokinetic trial, plasma levels in healthy volunteers; details: human
# Procedure: The phase 1a clinical study assessing the safety and pharmacokinetics of PBTZ169 in healthy volunteers (NCT03423030), was performed at the Service of Clinical Pharmacology of the Lausanne University Hospital and was approved on 06.09.2017 (2017–01241) by the Ethics Committee of the Canton of Vaud (CER-VD) and on 17.11.2017 (2017DR1171) by Swissmedic. All volunteers gave their written informed consent.
# The concentration measured in this plasma sample is 464 ng/mL, 147 ng/mL, 13 ng/mL, 12 ng/mL and 2 ng/mL for PBTZ169, Met 3-OH, Met 3-oxo, Met amino and Met 1-OH, respectively. […] Of note, measured plasma levels were multiplied by the factor 1.1 accounting for the blood 10:1 dilution due to citrate solution.
# [8] = system: Mycobacterium tuberculosis; set-up: method as in PMID 20086151, PMID 22926573, PMID 25987624, PMID 30126954; details: preclinical models; cited from earlier work
# [9] = system: bacteria (general anti-bacterial activity); set-up: method as in PMID 24500695; details: cited from earlier work
# [10] = 24 h
smiles,measurement,setting,value
Nc1cc(C(F)(F)F)cc2c(=O)nc(N3CCN(CC4CCCCC4)CC3)sc12 [Met amino],anti-TB activity in vitro (active / inactive),[1]; listed as amino metabolite,devoid of anti-TB activity
same,anti-TB activity in vitro (active / inactive),[1],inactive
same,time working solutions are stable,[2],≥ 3 months
same,time spiked plasma samples stability has been verified,[3],1 month
O=C(C1CCCCC1)N1CCN(c2nc(=O)c3cc(C(F)(F)F)cc([N+](=O)[O-])c3s2)CC1 [Met oxo],anti-TB activity in vitro (active / inactive),[1],active
same,% from freshly processed samples (n=2),[4]; 0.5 ng/mL,-11%
same,% from freshly processed samples (n=2),[4]; 1 ng/mL,-12%
same,% from freshly prepared samples,[4]; 2 ng/mL,-6%
same,% from freshly processed samples (n=2),[4]; 2 ng/mL,-6%
same,% from freshly processed samples (n=2),[4]; 50 ng/mL,-10%
same,% from freshly prepared samples,[4]; 150 ng/mL,-8%
same,% from freshly processed samples (n=2),[4]; 500 ng/mL,-8%
same,% from freshly processed samples (n=2),[4]; 1000 ng/mL,-3%
same,% from freshly prepared samples,[4]; 1500 ng/mL,-5%
same,% from freshly processed samples (n=2),[4]; 2000 ng/mL,-3%
same,% from t0,"[5]; 1 h, 10 ng/mL",1%
same,% from t0,"[5]; 1 h, 20 ng/mL",1%
same,% from t0,"[5]; 1 h, 50 ng/mL",-1%
same,% from t0,"[5]; 1 h, 100 ng/mL",-1%
same,% from t0,"[5]; 1 h, 200 ng/mL",0%
same,% from t0,"[5]; 1 h, 500 ng/mL",-5%
same,% from t0,"[5]; 2 h, 10 ng/mL",-3%
same,% from t0,"[5]; 2 h, 20 ng/mL",-4%
same,% from t0,"[5]; 2 h, 50 ng/mL",-8%
same,% from t0,"[5]; 2 h, 100 ng/mL",-3%
same,% from t0,"[5]; 2 h, 200 ng/mL",1%
same,% from t0,"[5]; 2 h, 500 ng/mL",-5%
same,% from t0,"[5]; 4 h, 10 ng/mL",-1%
same,% from t0,"[5]; 4 h, 20 ng/mL",0%
same,% from t0,"[5]; 4 h, 50 ng/mL",-6%
same,% from t0,"[5]; 4 h, 100 ng/mL",-4%
same,% from t0,"[5]; 4 h, 200 ng/mL",1%
same,% from t0,"[5]; 4 h, 500 ng/mL",-8%
same,% from t0,"[6]; 4°C, level H (QC 1500 ng/mL)",4%
same,% from t0,"[6]; 4°C, level L (QC 2 ng/mL)",-3%
same,% from t0,"[6]; 4°C, level M (QC 150 ng/mL)",5%
same,% from t0,"[6]; RT, level H (QC 1500 ng/mL)",25%
same,% from t0,"[6]; RT, level L (QC 2 ng/mL)",6%
same,% from t0,"[6]; RT, level M (QC 150 ng/mL)",29%
same,detection in vivo in plasma,[7],not detected
"O=c1nc(N2CCN(CC3CCCCC3)CC2)sc2c([N+](=O)[O-])cc(C(F)(F)F)cc12 [PBTZ169, macozinone]",minimum inhibitory concentration (MIC),"[1]; in vitro, Mycobacterium tuberculosis",below 0.0005 μg/mL
same,effect in combination with clofazimine or bedaquiline,[8],synergistic effect
same,"effect in combination with isoniazide, moxifloxacin, rifampicin",[8],additive effect
same,% from freshly processed samples (n=2),[4]; 0.1 ng/mL,19%
same,% from freshly processed samples (n=2),[4]; 0.2 ng/mL,11%
same,% from freshly processed samples (n=2),[4]; 0.5 ng/mL,-12%
same,% from freshly processed samples (n=2),[4]; 1 ng/mL,-4%
same,% from freshly prepared samples,[4]; 2 ng/mL,5%
same,% from freshly processed samples (n=2),[4]; 2 ng/mL,-3%
same,% from freshly processed samples (n=2),[4]; 50 ng/mL,7%
same,% from freshly prepared samples,[4]; 150 ng/mL,-3%
same,% from freshly processed samples (n=2),[4]; 500 ng/mL,-4%
same,% from freshly processed samples (n=2),[4]; 1000 ng/mL,-10%
same,% from freshly prepared samples,[4]; 1500 ng/mL,-7%
same,% from freshly processed samples (n=2),[4]; 2000 ng/mL,-1%
same,general anti-bacterial activity,[9],no general anti-bacterial activity
same,% from t0,"[5]; 1 h, 10 ng/mL",1%
same,% from t0,"[5]; 1 h, 20 ng/mL",2%
same,% from t0,"[5]; 1 h, 50 ng/mL",-1%
same,% from t0,"[5]; 1 h, 100 ng/mL",3%
same,% from t0,"[5]; 1 h, 200 ng/mL",1%
same,% from t0,"[5]; 1 h, 500 ng/mL",0%
same,% from t0,"[5]; 2 h, 10 ng/mL",0%
same,% from t0,"[5]; 2 h, 20 ng/mL",2%
same,% from t0,"[5]; 2 h, 50 ng/mL",-3%
same,% from t0,"[5]; 2 h, 100 ng/mL",-1%
same,% from t0,"[5]; 2 h, 200 ng/mL",-3%
same,% from t0,"[5]; 2 h, 500 ng/mL",-4%
same,% from t0,"[5]; 4 h, 10 ng/mL",-1%
same,% from t0,"[5]; 4 h, 20 ng/mL",-1%
same,% from t0,"[5]; 4 h, 50 ng/mL",-7%
same,% from t0,"[5]; 4 h, 100 ng/mL",0%
same,% from t0,"[5]; 4 h, 200 ng/mL",-2%
same,% from t0,"[5]; 4 h, 500 ng/mL",-3%
same,time stable in citrated human plasma,[10],at least 24 h
same,change in processed samples,"[6]; after 24h at RT, medium level",-30%
same,% from t0,"[6]; 4°C, level H (QC 1500 ng/mL)",-15%
same,% from t0,"[6]; 4°C, level L (QC 2 ng/mL)",5%
same,% from t0,"[6]; 4°C, level M (QC 150 ng/mL)",-7%
same,% from t0,"[6]; RT, level H (QC 1500 ng/mL)",-8%
same,% from t0,"[6]; RT, level L (QC 2 ng/mL)",-3%
same,% from t0,"[6]; RT, level M (QC 150 ng/mL)",2%
